# Source: patent US20130137865A1 (TAISHO PHARMACEUTICAL CO., LTD., priority 2010, published 2013)
# Target: T1, human mGlu2 receptor (Homo sapiens, UniProt Q14416)
# T1 construct: expressed in transfected cells; host or cells: CHO cells
# Test: [35S]GTPγS binding test (2), membranes of CHO cells stably expressing human mGlu2
# Type: biochemical
# Conditions: inhibition of glutamic acid (20 μM)-stimulated specific [35S]GTPγS binding
# Procedure: (Preparation of Crude Membrane Fraction of CHO Cells Stably Expressing the Human Metabotropic Glutamate Receptor (mGlu2))
# (§1) CHO cells stably expressing the human mGlu2 receptor were cultured in a 10% dialyzed fetal bovine serum-containing Dulbecco's Modified Eagle's Medium [1% proline, 50 units/mL penicillin, 50 μg/mL streptomycin, 400 μg/mL hygromycin B, and 2 mM L-glutamine (to be added when used)] at 37° C. in 5% CO2. Confluent cells were washed with PBS(−) twice, and were then harvested with a cell scraper. Then, the cells were centrifuged at 4° C. at 1000 rpm for 5 minutes to collect. The obtained precipitate was suspended in a 20 mM HEPES buffer (pH 7.4), and then homogenized with a Teflon® homogenizer. The resultant was centrifuged at 4° C. at 48,000×g for 20 minutes to obtain a precipitate again. The obtained precipitate was washed twice by centrifugation, and was then homogenized with the above-mentioned buffer, so as to obtain a crude membrane fraction. The obtained crude membrane fraction was preserved at −80° C.
# (§2) The frozen membrane fraction as prepared above was thawed when used, and it was then diluted with a binding test buffer (final concentration: 20 mM HEPES, 100 mM NaCl, 10 mM MgCl2, 8.4 μM GDP, 10 μg/mL saponin, and 0.1% BSA). The compound of the Example was added to a membrane fraction (10 μg protein/assay), and the obtained mixture was then incubated at 30° C. for 20 minutes. Thereafter, glutamic acid (final concentration: 20 μM) and [^35S]GTPγS (final concentration: 0.15 nM) were added to the reaction mixture, and then incubated at 30° C. for 1 hour. After completion of the incubation, the reaction mixture was subjected to filtration over a Whatman GF/C filter that had previously been immersed in a 20 mM HEPES buffer (pH 7.4), and the filter was then washed three times with 300 μL of ice-cold 20 mM HEPES buffer (pH 7.4). A scintillation cocktail was added to the resulting filter, and membrane-bound radioactivity was then measured with a liquid scintillation counter.
# (§3) The amount of [^35S]GTPγS bound in the case of carrying out the above described reaction in the absence of glutamic acid was defined as non-specific binding. The difference between such non-specific bound and the amount of [^35S]GTPγS bound in the presence of glutamic acid was defined as specific binding. Using non-linear analysis, a concentration-inhibition curve was produced. The concentration of the compound of each Example that caused 50% inhibition (IC50 value) of specific binding was determined from each concentration-inhibition curve.
# T1 sequence (Q14416 19-872): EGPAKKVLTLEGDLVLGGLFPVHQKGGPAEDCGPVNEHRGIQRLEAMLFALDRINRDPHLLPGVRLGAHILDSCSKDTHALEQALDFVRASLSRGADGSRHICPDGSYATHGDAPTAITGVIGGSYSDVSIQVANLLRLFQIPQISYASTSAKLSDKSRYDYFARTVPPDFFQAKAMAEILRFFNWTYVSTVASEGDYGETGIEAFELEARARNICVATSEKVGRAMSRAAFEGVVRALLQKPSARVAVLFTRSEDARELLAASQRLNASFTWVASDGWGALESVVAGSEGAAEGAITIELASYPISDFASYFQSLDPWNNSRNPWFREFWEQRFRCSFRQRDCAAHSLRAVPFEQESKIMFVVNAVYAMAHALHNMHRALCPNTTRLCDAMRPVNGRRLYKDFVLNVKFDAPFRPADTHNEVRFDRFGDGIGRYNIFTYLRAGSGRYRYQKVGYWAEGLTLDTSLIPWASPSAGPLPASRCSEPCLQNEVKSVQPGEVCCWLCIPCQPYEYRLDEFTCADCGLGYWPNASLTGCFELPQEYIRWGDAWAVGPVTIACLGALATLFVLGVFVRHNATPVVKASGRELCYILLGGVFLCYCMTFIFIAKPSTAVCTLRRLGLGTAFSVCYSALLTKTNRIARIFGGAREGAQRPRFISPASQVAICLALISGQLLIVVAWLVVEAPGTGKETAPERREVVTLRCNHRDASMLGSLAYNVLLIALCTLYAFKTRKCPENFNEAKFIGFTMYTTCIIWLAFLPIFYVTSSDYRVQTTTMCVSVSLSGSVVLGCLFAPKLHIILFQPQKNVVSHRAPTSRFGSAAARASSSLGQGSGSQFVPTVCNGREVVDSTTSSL
row,Structure (SMILES),IC50 [nM]
1,"Cn1ncc(-c2nc(-c3cccc(S(N)(=O)=O)c3)no2)c1COc1ccc(F)cn1 [Example 72, 3-[5-(5-{[(5-Fluoropyridin-2-yl)oxy]methyl}-1-methyl-1H-pyrazol-4-yl)-1,2,4-oxadiazol-3-yl]benzenesulfonamide]",10.3
2,"Cn1ncc(-c2nc(-c3cccc(S(N)(=O)=O)c3)no2)c1COc1ccccn1 [Example 75, 3-(5-{1-Methyl-5-[(pyridin-2-yloxy)methyl]-1H-pyrazol-4-yl}-1,2,4-oxadiazole-3-yl)benzenesulfonamide]",36.7
3,"CN(C)CCNS(=O)(=O)c1cccc(-c2noc(-c3cnn(C)c3COc3ccc(F)cn3)n2)c1 [Example 85, N-[2-(Dimethylamino)ethyl]-3-[5-(5-{[(5-fluoropyridin-2-yl)oxy]methyl}-1-methyl-1H-pyrazol-4-yl)-1,2,4-oxadiazol-3-yl]benzenesulfonamide]",13.6
4,"Cn1ncc(-c2nc(-c3ccc(N)nc3)no2)c1COc1ccc(C(F)(F)F)cc1 [Example 92, 5-[5-(1-Methyl-5-{[4-(trifluoromethyl)phenoxy]methyl}-1H-pyrazol-4-yl)-1,2,4-oxadiazol-3-yl]pyridine-2-amine]",28.6
5,"Cn1ncc(-c2nc(-c3cccc(S(N)(=O)=O)c3)no2)c1COc1ccc(C(F)(F)F)cn1 [Example 122, 3-{5-[1-Methyl-5-({[5-(trifluoromethyl)pyridin-2-yl]oxy}methyl)-1H-pyrazol-4-yl]-1,2,4-oxadiazol-3-yl}benzenesulfonamide]",1.33
6,"CNS(=O)(=O)c1cccc(-c2noc(-c3cnn(C)c3COc3ccccn3)n2)c1 [Example 146, N-Methyl-3-(5-{1-methyl-5-[(pyridin-2-yloxy)methyl]-1H-pyrazol-4-yl}-1,2,4-oxadiazol-3-yl)benzenesulfonamide]",13.2
7,"Cn1ncc(-c2nnc(-c3cccc(S(N)(=O)=O)c3)o2)c1COc1ccc(C(F)(F)F)cn1 [Example 187, 3-{5-[1-Methyl-5-({[5-(trifluoromethyl)pyridin-2-yl]oxy}methyl)-1H-pyrazol-4-yl]-1,3,4-oxadiazol-2-yl}benzenesulfonamide]",21.5
8,"Cn1ncc(-c2nnc(-c3ccc(S(N)(=O)=O)cc3)o2)c1COc1ccc(C(F)(F)F)cc1 [Example 190, 4-[5-(1-Methyl-5-{[4-(trifluoromethyl)phenoxy]methyl}-1H-pyrazol-4-yl)-1,3,4-oxadiazol-2-yl]benzenesulfonamide]",67.2
9,"Cn1ncc(-c2coc(-c3cccc(S(N)(=O)=O)c3)n2)c1COc1ccc(C(F)(F)F)cc1 [Example 203, 3-[4-(1-Methyl-5-{[4-(trifluoromethyl)phenoxy]methyl}-1H-pyrazol-4-yl)-1,3-oxazol-2-yl]benzenesulfonamide]",3.85
10,"Cn1ncc(-c2cc(-c3cccc(S(N)(=O)=O)c3)on2)c1COc1ccc(F)cn1 [Example 204, 3-[3-(5-{[(5-Fluoropyridin-2-yl)oxy]methyl}-1-methyl-1H-pyrazol-4-yl)-1,2-oxazol-5-yl]benzenesulfonamide]",50.8
11,"CC(=O)Nc1cc(-c2noc(-c3cnn(C)c3COc3ccc(C(F)(F)F)cc3)n2)ccn1 [Example 208, N-{4-[5-(1-methyl-5-{[4-(trifluoromethyl)phenoxy]methyl}-1H-pyrazol-4-yl)-1,2,4-oxadiazol-3-yl]pyridin-2-yl}acetamide]",29.1
12,"Cn1ncc(-c2nc(-c3cccc(S(N)(=O)=O)c3)no2)c1COc1ncc(F)cc1Br [Example 214, 3-[5-(5-{[(3-Bromo-5-fluoropyridin-2-yl)oxy]methyl}-1-methyl-1H-pyrazol-4-yl)-1,2,4-oxadiazol-3-yl]benzenesulfonamide]",26.4
13,"Cn1ncc(-c2nc(-c3ccc(S(C)(=O)=O)cc3)no2)c1COc1ccc(C(F)(F)F)cn1 [Example 215, 2-[(1-Methyl-4-{3-[4-(methylsulfonyl)phenyl]-1,2,4-oxadiazol-5-yl}-1H-pyrazol-5-yl)methoxy]-5-(trifluoromethyl)pyridine]",49.1
14,"Cn1ncc(-c2nc(-c3cccc(S(C)(=O)=O)c3)no2)c1COc1ccc(C(F)(F)F)cn1 [Example 216, 2-[(1-Methyl-4-{3-[3-(methylsulfonyl)phenyl]-1,2,4-oxadiazol-5-yl}-1H-pyrazol-5-yl)methoxy]-5-(trifluoromethyl)pyridine]",4.32
15,"CC(=O)Nc1cc(-c2noc(-c3cnn(C)c3COc3ccc(C(F)(F)F)cn3)n2)ccn1 [Example 217, N-(4-{5-[1-Methyl-5-({[5-(trifluoromethyl)pyridin-2-yl]oxy}methyl)-1H-pyrazol-4-yl]-1,2,4-oxadiazol-3-yl}pyridin-2-yl)acetamide]",14.9
16,"Cn1ncc(-c2nc(-c3cnc(N)nc3)no2)c1COc1ccc(C(F)(F)F)cn1 [Example 218, 5-{5-[1-Methyl-5-({[5-(trifluoromethyl)pyridin-2-yl]oxy}methyl)-1H-pyrazol-4-yl]-1,2,4-oxadiazol-3-yl}pyrimidine-2-amine]",68
17,"Cn1ncc(-c2nc(-c3cccc(N)c3)no2)c1COc1ccc(C(F)(F)F)cn1 [Example 220, 3-{5-[1-Methyl-5-({[5-(trifluoromethyl)pyridin-2-yl]oxy}methyl)-1H-pyrazol-4-yl]-1,2,4-oxadiazol-3-yl}aniline]",32.2
18,"Cn1ncc(-c2nc(-c3cncc(S(C)(=O)=O)c3)no2)c1COc1ccc(C(F)(F)F)cn1 [Example 223, 2-[(1-Methyl-4-{3-[5-(methylsulfonyl)pyridin-3-yl]-1,2,4-oxadiazol-5-yl}-1H-pyrazol-5-yl)methoxy]-5-(trifluoromethyl)pyridine]",17.1
19,"Cn1ncc(-c2nc(-c3cncc(S(N)(=O)=O)c3)no2)c1COc1ccc(C(F)(F)F)cn1 [Example 224, 5-{5-[1-Methyl-5-({[5-(trifluoromethyl)pyridin-2-yl]oxy}methyl)-1H-pyrazol-4-yl]-1,2,4-oxadiazol-3-yl}pyridine-3-sulfonamide]",3.64
20,"Cn1ncc(-c2nc(-c3cc[nH]c(=O)c3)no2)c1COc1ccc(C(F)(F)F)cn1 [Example 228, 4-{5-[1-Methyl-5-({[5-(trifluoromethyl)pyridin-2-yl]oxy}methyl)-1H-pyrazol-4-yl]-1,2,4-oxadiazol-3-yl}pyridine-2(1H)-one]",56.9
21,"CNCCNS(=O)(=O)c1cccc(-c2noc(-c3cnn(C)c3COc3ccc(F)cn3)n2)c1 [Example 232, 3-[5-(5-{[(5-Fluoropyridin-2-yl)oxy]methyl}-1-methyl-1H-pyrazol-4-yl)-1,2,4-oxadiazol-3-yl]-N-[2-(methylamino)ethyl]benzenesulfonamide]",33.2
22,"Cn1nc(-c2cccc(S(N)(=O)=O)c2)nc1-c1cnn(C)c1COc1ccc(C(F)(F)F)cc1 [Example 233, 3-[1-Methyl-5-(1-methyl-5-{[4-(trifluoromethyl)phenoxy]methyl}-1H-pyrazol-4-yl)-1H-1,2,4-triazol-3-yl]benzenesulfonamide]",80.6

# Target: T2, rat mGlu2 receptor (Rattus norvegicus, UniProt P31421)
# T2 construct: expressed in transfected cells; host or cells: CHO cells
# Test: [35S]GTPγS binding test (1), membranes of CHO cells stably expressing rat mGlu2
# Type: biochemical
# Conditions: inhibition of glutamic acid (20 μM)-stimulated specific [35S]GTPγS binding
# Procedure: (Preparation of Crude Membrane Fraction of CHO Cells Stably Expressing the Rat Metabotropic Glutamate Receptor (mGlu2))
# as §1, with “rat” for “human”, “streptomycin,” for “streptomycin, 400 μg/mL hygromycin B,”
# as §2, §3
# T2 sequence (P31421 19-872): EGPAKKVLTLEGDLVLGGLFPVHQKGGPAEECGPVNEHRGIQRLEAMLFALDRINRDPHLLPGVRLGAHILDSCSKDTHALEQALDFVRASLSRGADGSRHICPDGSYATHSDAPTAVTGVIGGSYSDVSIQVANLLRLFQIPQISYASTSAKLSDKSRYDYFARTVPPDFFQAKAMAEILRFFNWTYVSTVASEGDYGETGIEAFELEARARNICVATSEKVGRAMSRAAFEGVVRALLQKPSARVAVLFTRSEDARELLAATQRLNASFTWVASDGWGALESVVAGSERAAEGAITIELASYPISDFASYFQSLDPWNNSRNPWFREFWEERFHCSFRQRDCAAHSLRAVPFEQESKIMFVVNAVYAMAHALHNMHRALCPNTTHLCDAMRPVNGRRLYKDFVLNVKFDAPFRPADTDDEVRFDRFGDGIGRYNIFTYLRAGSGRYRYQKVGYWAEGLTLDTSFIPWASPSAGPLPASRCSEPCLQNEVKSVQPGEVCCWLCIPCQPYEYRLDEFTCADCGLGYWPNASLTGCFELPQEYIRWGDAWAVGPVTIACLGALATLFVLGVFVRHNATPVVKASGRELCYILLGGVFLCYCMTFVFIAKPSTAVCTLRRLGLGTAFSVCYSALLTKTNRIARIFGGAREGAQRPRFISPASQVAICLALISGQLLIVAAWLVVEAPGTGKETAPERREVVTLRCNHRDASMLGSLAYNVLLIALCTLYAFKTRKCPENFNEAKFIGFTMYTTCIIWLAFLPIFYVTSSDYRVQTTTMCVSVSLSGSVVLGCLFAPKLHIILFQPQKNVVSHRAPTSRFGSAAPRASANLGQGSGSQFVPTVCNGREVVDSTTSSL
row,Structure (SMILES),IC50 [nM]
1,"Cn1ncc(-c2noc(-c3ccc(S(N)(=O)=O)cc3)n2)c1CCc1ccc(C(F)(F)F)cc1 [Example 3, 4-[3-(1-Methyl-5-{2-[4-(trifluoromethyl)phenyl]ethyl}-1H-pyrazol-4-yl)-1,2,4-oxadiazol-5-yl]benzenesulfonamide]",3.65
2,"Cn1ncc(-n2cc(-c3ccc(S(N)(=O)=O)cc3)cn2)c1CCc1ccc(C(F)(F)F)cc1 [Example 6, 4-(1′-Methyl-5′-{2-[4-(trifluoromethyl)phenyl]ethyl}-1′H-1,4′-bipyrazol-4-yl)benzenesulfonamide]",58.5
3,"Cn1ncc(-c2nc(-c3cccc(S(N)(=O)=O)c3)no2)c1C#Cc1ccc(C(F)(F)F)cn1 [Example 7, 3-[5-(1-Methyl-5-{[5-(trifluoromethyl)pyridin-2-yl]ethynyl}-1H-pyrazol-4-yl)-1,2,4-oxadiazol-3-yl]benzenesulfonamide]",17.6
